Reference: PubChem BioAssay AID504898 (Southern Research Specialized Biocontainment Screening …, 2011)
Active and inactive are the calls of the source. How the calls were made is not given here.

Legend:
[1] = Mycobacterium tuberculosis H37Rv growth inhibition, glycerol free medium, confirmatory dose response (AID 504898); details: M. tuberculosis H37Rv growth inhibition, glycerol-free medium; at 100 µM (top of the series)
[2] = tested on: M. tuberculosis H37Rv growth inhibition, glycerol-free medium; assay: as above; details: for IC50: measured here: M. tuberculosis growth IC50

For `CN1CCC(NC(=O)CSc2nc3ccccc3c(=O)[nH]2)CC1`, the growth inhibition [1] was -4% (inactive).
In the case of `CCOC(=O)CSc1nc(C)c(C)c(=O)[nH]1`, the growth inhibition [1] is reported as -0.94% (inactive).
`CC(C)CCNC(=O)CSc1nc2ccccc2c(=O)[nH]1` showed an IC90 [2] of 280 nM and an IC50 [2] of under 110 nM.
With `CCSc1nc2ccccc2c(=O)[nH]1` the growth inhibition [1] was -0.83% (inactive).
In the case of `CC[N+](C)(CC)CCCCOc1ccc2c(c1)C(=O)c1cc(OCCCC[N+](C)(CC)CC)ccc1-2`, the IC90 [2] is reported as 2800 nM and the IC50 [2] is reported as 1920 nM.
`O=C(CSc1nc2ccccc2c(=O)[nH]1)NCc1ccc(Cl)cc1` showed an IC90 [2] of 1600 nM and an IC50 [2] of 1090 nM.
Molecule `CC1CCN(C(=O)C2CCN(c3nnc(-n4cccc4)s3)CC2)CC1` has an IC90 [2] of 6190 nM and an IC50 [2] of 3030 nM.
For `Cc1nc(SCC(=O)NCCC(C)C)[nH]c(=O)c1C`, the IC90 [2] was 13600 nM and the IC50 [2] was 9380 nM.
For `O=C(CSc1nc2ccccc2c(=O)[nH]1)N1CCOCC1`, the growth inhibition [1] was 3.26% (inactive).
In the case of `Cc1nc(SCC(=O)N(C)c2ccccc2)[nH]c(=O)c1C`, the growth inhibition [1] is reported as -9.33% (inactive).
In the case of `CCC(Sc1nc2ccccc2c(=O)[nH]1)C(=O)Nc1cccc(OC)c1` (stereo not given), the growth inhibition [1] is reported as -0.61% (inactive).
Work on `CN[C@@H]1[C@H](O[C@H]2[C@H](O[C@H]3[C@H](O)[C@@H](O)[C@H](N=C(N)N)[C@@H](O)[C@@H]3N=C(N)N)O[C@@H](C)[C@]2(O)C=O)O[C@@H](CO)[C@H](O)[C@H]1O` yielded an IC90 [2] of 180 nM and an IC50 [2] of 126 nM.
With `O=C(CSc1nc2c(c(=O)[nH]1)CCC2)NC1CCCCC1` the IC90 [2] was under 100 nM and the IC50 [2] was under 65 nM.
In the case of `CC(C)N=c1cc2n(-c3ccc(Cl)cc3)c3ccccc3nc-2cc1Nc1ccc(Cl)cc1`, the IC90 [2] is reported as 360 nM and the IC50 [2] is reported as 67 nM.
`CC(C)NC(=O)CSc1nc2ccccc2c(=O)[nH]1` gave an IC90 [2] of 15000 nM and an IC50 [2] of 9870 nM.
For `COc1ccc(NC(=O)CSc2nc3ccccc3c(=O)[nH]2)cc1`, the growth inhibition [1] was 1.8% (inactive).
With `O=c1[nH]c(=S)[nH]c2ccccc12` the growth inhibition [1] was -2.86% (inactive).
Molecule `CCOC1OC(=O)C(Cl)=C1Nc1ccccc1C` (stereo not given) has an IC90 [2] of 5980 nM and an IC50 [2] of 2980 nM.
For `NC(=O)c1cnccn1`, the growth inhibition [1] was 3.35% (inactive).
`O=C(CSc1nc2ccccc2c(=O)[nH]1)NC1CCCC1` gave an IC90 [2] of 630 nM and an IC50 [2] of 270 nM.
For `CN(C)C(=O)CSc1nc2ccccc2c(=O)[nH]1`, the growth inhibition [1] was 4.4% (inactive).
In the case of `COc1c(N2CCNC(C)C2)c(F)cc2c(=O)c(C(=O)O)cn(C3CC3)c12` (stereo not given), the IC90 [2] is reported as 140 nM and the IC50 [2] is reported as 109 nM.
For `Cc1ccc(C(=O)N/N=C(/CC(=O)c2cccs2)C(F)(F)F)cc1`, the IC90 [2] was 2900 nM and the IC50 [2] was 1710 nM.
With `Cc1cc(=O)[nH]c(=S)[nH]1` the growth inhibition [1] was -2.75% (inactive).
With `Cc1ccc(NC(=O)COC(=O)CCc2c[nH]c3ccccc23)cc1[N+](=O)[O-]` the IC90 [2] was 8510 nM and the IC50 [2] was 2340 nM.
In the case of `CN(C(=O)CSc1nc2ccccc2c(=O)[nH]1)C1CCCCC1`, the growth inhibition [1] is reported as 2.63% (inactive).
In the case of `COC(=O)c1ccc(CNc2c(N3CCCC3)c(=O)c2=O)cc1`, the growth inhibition [1] is reported as 0.74% (inactive).
In the case of `O=C(CSc1nccc(=O)[nH]1)NC1CCCCC1`, the growth inhibition [1] is reported as -5.34% (inactive).
With `Cc1cc(=O)[nH]c(SCC(=O)NC2CCCCC2)n1` the growth inhibition [1] was -3.3% (inactive).
With `CC1CCN(C(=O)CSc2nc3ccccc3c(=O)[nH]2)CC1` the growth inhibition [1] was -0.8% (inactive).
For `CCCc1cc(C(N)=S)ccn1`, the IC50 [2] was 9610 nM.
With `NNC(=O)c1ccncc1` the IC90 [2] was 460 nM and the IC50 [2] was 310 nM.
With `Cc1nc(SCc2ccccc2Cl)[nH]c(=O)c1C` the growth inhibition [1] was -0.81% (inactive).
With `Cc1cc(Br)ccc1NC(=O)c1cnc(N2CCN(c3ccccn3)CC2)c2ccccc12` the IC50 [2] was 4320 nM.
With `Nc1cc(=O)[nH]c(SCC(=O)NC2CCCCC2)n1` the growth inhibition [1] was 0.56% (inactive).
With `Cn1c(SCC(=O)NC2CCCCC2)nc2ccccc2c1=O` the growth inhibition [1] was -3.28% (inactive).
In the case of `CC(C)CCNC(=O)CSc1nc2c(c(=O)[nH]1)CCC2`, the IC90 [2] is reported as 2020 nM and the IC50 [2] is reported as 1370 nM.
`CCOc1ccc(-c2cc(C)[n+](CCc3ccc(OC)c(OC)c3)c(-c3ccc(OCC)cc3)c2)cc1` gave an IC90 [2] of 1450 nM and an IC50 [2] of 720 nM.
Work on `O=C(CSc1nc2c(c(=O)[nH]1)CCCC2)NC1CCCCC1` yielded an IC90 [2] of under 110 nM and an IC50 [2] of under 57 nM.
For `Cc1cnc(SCC(=O)NC2CCCCC2)[nH]c1=O`, the growth inhibition [1] was -3.1% (inactive).
With `O=C(CSc1ncccn1)NC1CCCCC1` the growth inhibition [1] was -3.37% (inactive).
For `COC(=O)C(Nc1nc(SCC(=O)NC2CCCCC2)nc2ccccc12)c1ccccc1` (stereo not given), the growth inhibition [1] was -4.58% (inactive).
With `O=C(CSc1ccccn1)NC1CCCCC1` the growth inhibition [1] was 13.4% (inactive).
For `Cc1[nH]c2ccccc2c1C(=O)COC(=O)c1ccc([N+](=O)[O-])s1`, the IC50 [2] was over 67100 nM.
`Cc1nc(SCC(=O)NC2CCCCC2)[nH]c(=O)c1C` gave an IC90 [2] of 9530 nM and an IC50 [2] of 130 nM.
In the case of `Cc1[nH]c(=S)[nH]c(=O)c1C`, the growth inhibition [1] is reported as -2.88% (inactive).
For `Nc1c(C(=O)NC2CCCCC2)nsc1C(=O)OCC(=O)NC1CCCCC1`, the IC90 [2] was 52600 nM and the IC50 [2] was 6560 nM.
In the case of `CCSc1nc(C)c(C)c(=O)[nH]1`, the growth inhibition [1] is reported as 3.43% (inactive).
With `CC(Sc1nc2ccccc2c(=O)[nH]1)C(=O)NC1CCCCC1` (stereo not given) the growth inhibition [1] was -1.37% (inactive).
Molecule `c1ccc(/N=C2\N=C(Nc3ccccn3)c3ccccc32)nc1` has an IC90 [2] of 2520 nM and an IC50 [2] of 1780 nM.
`O=C(CSc1nc2ccccc2c(=O)[nH]1)NC1CCCCC1` showed an IC90 [2] of 510 nM and an IC50 [2] of 360 nM.
With `COc1cccc(NC(=O)CSc2nc3c(c(=O)[nH]2)CCC3)c1` the growth inhibition [1] was -9.1% (inactive).
For `COc1cccc(NC(=O)CSc2nc3ccccc3c(=O)[nH]2)c1`, the growth inhibition [1] was -2.5% (inactive).
In the case of `NC(=O)CSc1nc2ccccc2c(=O)[nH]1`, the growth inhibition [1] is reported as 3.58% (inactive).
In the case of `CCC(Sc1nc2c(c(=O)[nH]1)CCC2)C(=O)Nc1cccc(OC)c1` (stereo not given), the growth inhibition [1] is reported as -0.59% (inactive).
Work on `COC(=O)C(C)Oc1ccc(Cc2ncc(C(F)(F)F)cc2Cl)cc1` (stereo not given) yielded an IC90 [2] of 5620 nM and an IC50 [2] of 3630 nM.
In the case of `CCC(Sc1nc2ccccc2c(=O)[nH]1)C(=O)NC1CCCCC1` (stereo not given), the growth inhibition [1] is reported as -0.87% (inactive).
In the case of `Cc1nc(SCC(N)=O)[nH]c(=O)c1C`, the growth inhibition [1] is reported as 3% (inactive).
In the case of `Cc1ccc(NC(=O)CSc2nc3ccccc3c(=O)[nH]2)cc1Cl`, the growth inhibition [1] is reported as -2.52% (inactive).
`Cc1cc(C)n2nc(N)c(N=Nc3ccccc3)c2n1` showed an IC90 [2] of 5840 nM and an IC50 [2] of 4250 nM.
With `Cc1cccc(/C=C/C(=O)c2ccc([N+](=O)[O-])o2)c1` the IC90 [2] was 2230 nM and the IC50 [2] was 1490 nM.
`NC[C@H]1O[C@H](O[C@H]2[C@H](O)[C@@H](O[C@H]3O[C@H](CO)[C@@H](O)[C@H](N)[C@H]3O)[C@H](N)C[C@@H]2N)[C@H](O)[C@@H](O)[C@@H]1O` showed an IC90 [2] of 2420 nM and an IC50 [2] of 1790 nM.
Work on `Cc1cccc(-c2oc3ccc(-c4ccc5c(c4)OCO5)cc3c2C#Cc2cncn2C)c1` yielded an IC90 [2] of 3020 nM and an IC50 [2] of 2610 nM.
In the case of `Cc1c[nH]c(=S)[nH]c1=O`, the growth inhibition [1] is reported as -1.93% (inactive).
With `Cc1nc(SCC(=O)NC2CCCC2)[nH]c(=O)c1C` the IC90 [2] was 13800 nM and the IC50 [2] was 9450 nM.
For `O=c1[nH]c(SCc2ccccc2Cl)nc2c1CCCC2`, the growth inhibition [1] was 0.45% (inactive).
In the case of `CNC(=O)CSc1nc2ccccc2c(=O)[nH]1`, the IC50 [2] is reported as 78200 nM.
